Values of other authors as cited in patent publication US11603416B2, “Method for preparation of derivatives of gram-positive bacteria surface capsular polysaccharide” (priority 2018, dated 2023).

Tested on: children with severe ASD
Conditions: oral administration; effect disappears once the drug is discontinued

CN[C@H](CC(C)C)C(=O)N[C@H]1C(=O)N[C@@H](CC(N)=O)C(=O)N[C@H]2C(=O)N[C@H]3C(=O)N[C@H](C(=O)N[C@H](C(=O)O)c4cc(O)cc(O)c4-c4cc3ccc4O)[C@H](O)c3ccc(c(Cl)c3)Oc3cc2cc(c3O[C@@H]2O[C@H](CO)[C@@H](O)[C@H](O)[C@H]2O[C@H]2C[C@](C)(N)[C@H](O)[C@H](C)O2)Oc2ccc(cc2Cl)[C@H]1O [vancomycin]
child patients whose autism symptoms have been relieved for a short time: 80%
